According to patent US5451518A, “Purified human ceramide-activated protein kinase” (Sloan-Kettering Institute for Cancer Research, priority 1992, dated 1995):
Entries after “also recorded” stand apart in the source; their conditions may differ. Read-outs that look alike come from different tables or passages of the source.

Legend:
[1] = tested on: sphingomyelin (HL-60 nuclei-free supernate); test: Sphingomyelin content in HL-60 cell-free system; format: biochemical, human
Experimental: (§1) HL-60 cells were grown in RPMI 1640 medium supplemented with 10% bovine calf serum and amino acids (4). To measure sphingomyelin, cells were resuspended (1×10^6 ml^-1), labeled for 48 hours in medium with [^3 H]choline (1 μCi ml^-1) (57), in serum-free medium containing bovine insulin (5 μg ml^-1) and human transferrin (5 μg ml^-1). After 3 hours, cells were resuspended (150×10^6 ml^-1) in homogenization buffer (50 mM NaF, 5 mM EGTA, and 25 mM Hepes, pH 7.4), disrupted at 4° C. with 150 strokes of a tight-fitting Dounce homogenizer (Fisher Scientific, Pittsburgh, Pa.), and centrifuged for 5 minutes (500 g). The nuclei-free supernate was first incubated for 5 minutes at 4° C. with 30 nM human TNF-α (Genentech, South San Francisco, Calif.) or diluent ( 50 mMHepes, pH 7.4). At time zero, 15 μl of supernate (112 μg per incubation) were added to a reaction mixture containing 30 μl of 25 mM Hepes, pH 7.4, 30 μl of 750 μM ATP, and 75 μl of reaction buffer (50 mM Hepes, pH 7.4 and 20 mM MgCl2) at 22° C. The reaction was terminated with CHCl3 :CH3 OH:HCl (100:100:1, v/v/v) (3, 4, 13) and 150 μl of balanced salt solution (135 mM NaCl, 4.5 mM KCl, 1.5 mM CaCl2, 0.5 mM MgCl2, 5.6 mM glucose, and 10 mM Hepes, pH 7.2) containing 20 mM EDTA. Lipids in the organic phase extract were subjected to alkaline methanolysis to remove glycerophospholipids (4). Sphingomyelin recovery in the nuclei-free supernate was 93% of that in intact cells. A measure of 10^6 cell equivalents of supernate contained 50 μg of protein. Sphingomyelin was resolved by thin-layer chromatograhy (TLC) with CHCl3 :CH3 OH:CH3 COOH:H2 O (25:15:4:1.5 ) as solvent, identified by iodine vapor staining and quantified by liquid scintillation spectrometry (1, 8, 56). Ceramide was quantified with the diacyglycerol kinase reaction (4, 57). Values (mean) are derived from triplicate determinations from one experiment representative of three similar studies for sphingomyelin and four similar studies for ceramide.
(§2) The binding of TNF-α to its receptor is detectable within 2 minutes and maximal by 5 to 10 minutes at 4° C. in membranes derived from HL-60 cells (41). Therefore, supernates from HL-60 cells, collected after a low-speed centrifugation to remove nuclei, were first incubated with TNF-α for 5 minutes at 4° C. to allow the formation of TNF-receptor complexes. Thereafter, reactions were initiated by warming supernates to 22° C. in a reaction mixture containing adenosine triphosphate (ATP) and Mg^2+ at pH 7.4.
These conditions were adopted to allow for activation of neutral sphingomyelinase (1, 42). Under these conditions, TNF-α induced a time- and concentration-dependent reduction in sphingomyelin content (FIG. 9A). the effect of TNF-α was evident at 1 minute and maximal by 7.5 minutes. Sphingomyelin concentrations decreased 27% from a control concentration of 10.4±0.5 (mean ± SEM) to 7.6±0.2 nmol per milligram (nmol mg^-1) of supernate protein (P<0.001). […] Concentrations of TNF-α of 300 pM were ineffective, with a maximal effect at 3 nMTNF-α [effective dose (ED50)≈500 pM]. Under the same conditions, ceramide increased quantitatively from 1.8±0.3 to 4.0±0.5 nmol mg^-1 (FIG. 9B). This effect was detectable at 1 minute (P<0.001) and maximal by 7.5 minutes. Thus, 2.8 nmol of sphingomyelin per milligram of supernate protein were lost for each 2.2 nmol of ceramide per milligram of supernate protein that was generated. […] Other choline-containing lipids, including phosphatidyl-choline, lysophosphatidylcholine, sphingosylphosphorylcholine(1), and 1,2-diacylglycerol were not affected by TNF-α.

[2] = tested on: ceramide (HL-60 nuclei-free supernate); test: Ceramide content in HL-60 cell-free system; format: biochemical, human
Experimental: as §1, §2
These conditions were adopted to allow for activation of neutral sphingomyelinase (1, 42). […] Under the same conditions, ceramide increased quantitatively from 1.8±0.3 to 4.0±0.5 nmol mg^-1 (FIG. 9B). […]

[3] = tested on: ceramide-activated protein kinase; test: Ceramide-activated protein kinase activity in HL-60 cell-free system; format: biochemical, human
Experimental: HL-60 cells were incubated in serum-free medium and homogenized (as in FIGS. 9A and 9B). […] ATP (750 μM, 4000 dpm pmol^-1), and 75 μl of reaction buffer (40). The reaction was terminated by adding 30 μl of 0.5M ATP in 90% formic acid. Phosphorylated peptide was first run on a C18 Sep-Pak cartridge, then resolved by C18 reverse-phase HPLC (Waters, Milford, Mass.), with a linear gradient of acetonitrile. The peptide eluted at 30% acetonitrile, as determined by monitoring Cerenkov radiation in 1-ml fractions. Background activity was subtracted from each point. (FIG. 10A) Kinetics of TNF-α (30 nM)-stimulated EGFR peptide phosphorylation. Values (mean) represent data from four experiments. (FIG. 10B) Concentration dependence of EGFR peptide phosphorylation at 5 minutes of stimulation with TNF-α (0.01 to 30 nM). Values (mean) represent data derived from duplicate points in two experiments. The SEM of the values in (FIG. 10A) was 18% and the mean range of values in (FIG. 10B) was 3%.
Peptide phosphorylation was measured as in FIGS. 10A nad 10B. Control value represents peptide phosphorylation in the absence of phospholipases or TNF-α. Values (mean ± SEM) represent data derived from duplicate samples in three experiments. *P<0.001 compared to control.
as §2
The effect of TNF-α on ceramide-activated protein kinase activity was assessed. […] For studies assessing the effect of TNFα in broken cell preparations, nuclei-free supernates were incubated under conditions sufficient for stimulation of neutral sphingomyelinase in a reaction mixture that also contained EGFR peptide and γ-^32 P-labeled ATP. Phosphorylated peptide was resolved by high-performance liquid chromatograph (HPLC) and quantified by Cerenkov counting (40). Kinase activity was calculated from the specific activity of [γ-^32 P] ATP and incorporation of ^32 P into EGFR peptide. Background activity was subtracted from each point. […] If the initial incubation with TNF-α at 4° C. was omitted and TNF was added directly to the reaction mixture at 22° C., the reaction was delayed. […] TNF-α enhanced kinase activity in a concentration-dependent manner at 5 minutes (FIG. 10B). […] This is similar to the ED50 of 200 pM for stimulation of ceramide-activated protein kinase by TNF-α in intact cells (40). TNF-α enhanced kinase activity in a total of 20 separate studies.
Control activity reflects several TNF-α-independent protein kinases that are known to phosphorylate EGFR peptide on Thr^669.

[4] = tested on: phosphatidyl-choline, lysophosphatidylcholine, sphingosylphosphorylcholine, 1,2-diacylglycerol; test: Other choline-containing lipids and diacylglycerol in HL-60 cell-free system; format: biochemical, human; conditions: TNF-α
[5] = tested on: ceramide-activated protein kinase
[6] = tested on: ceramide-activated protein kinase; conditions: cited from earlier work
HL-60 cells [7] = conditions: cited from earlier work
HL-60 cells [8] = conditions: cited from earlier work; remark: listed apart in the source

## TNF-α
[1]; TNF-α
  concentration for maximal effect on sphingomyelin: 3 nM
  effective dose (ED50), sphingomyelin reduction: ≈ 500 pM
  sphingomyelin lost: 2.8 nmol per milligram of supernat
  time at which sphingomyelin reduction was evident: 1 min
  time to maximal sphingomyelin reduction: ≤ 7.5 min
[1]; TNF-α, P<0.001
  decrease in sphingomyelin concentration: 27%
[1]; mean ± SEM, control 10.4±0.5, P<0.001
  sphingomyelin concentration after TNF-α: 7.6±0.2 nmol per milligram (nmol mg^-1) of supernate protein
[2]; TNF-α
  ceramide generated: 2.2 nmol per milligram of supernat
  time to maximal ceramide increase: ≤ 7.5 min
[2]; TNF-α, P<0.001
  time at which ceramide increase was detectable: 1 min
[2]; from 1.8±0.3
  ceramide concentration after TNF-α: 4.0 ± 0.5 nmol/mg
[3]; TNF added directly at 22° C., no 4° C. incubation
  delay before enhancement of kinase activity: 2 min
[3]; TNF-α 30 nM
  duration of stimulation of kinase activity: at least 10 minutes
  time at which stimulation of kinase activity was evident: evident by i minute
[3]; TNF-α 30 nM, GTP, GTP-γ-S 0.25 to 200 μM, SMase 1×10^-3 U ml^-1, 5 minutes, phospholipases 40- to 400-fold higher
  effect on kinase activity (in words): enhanced kinase activity (P<0.001)
[3]; TNF-α, 5 minutes
  concentration for maximal effect: 3 nM
  effective concentration: 10 pM
[3]; TNF-α, 5 minutes, cell-free
  ED50 for kinase activity: ≈ 300 pM
[4]
  effect on phosphatidyl-choline, lysophosphatidylcholine, sphingosylphosphorylcholine and 1,2-diacylglycerol: not affected
[5]; TNF-α 3 pM, 60 minutes
  increase in kinase activity: 1.1 -fold of control
[5]; TNF-α 30 nM, 5 minutes
  increase in kinase activity: 1.5 -fold of control
[5]; TNF-α 30 nM, 60 minutes
  maximal effect on kinase activity: 1.8 -fold of control
[5]; TNF-α 30 nM, 2 hours
  increase in kinase activity: 2.2 -fold of control
[5]; TNF-α 30 nM, 2 hours, listed as TNF
  increase in kinase activity: 2 -fold of control
[5]; TNF-α, 60 minutes, intact cells
  ED50 for kinase activity: ≈ 200 pM
[6]; intact HL-60 cells
  effect on kinase activity (in words): rapidly increased; also recorded: similarly enhanced kinase activity in intact cells
[6]; intact cells
  ED50 for stimulation of ceramide-activated protein kinase: 0.2 nM
HL-60 cells [7]; also for monocyte differentiation
  maximally effective concentration for generation of ceramide: 30 nM
HL-60 cells [7]
  sphingomyelin degradation to ceramide / ceramide level (in words): increase cellular levels of ceramide within minutes; also recorded: activates a neutral sphingomyelinase to generate ceramide
HL-60 cells [7]; listed as Tumor necrosis factor (TNF) α
  sphingomyelin degradation to ceramide / ceramide level (in words): stimulate sphingomyelin degradation to ceramide
HL-60 cells [8]
  monocytic differentiation: induce monocytic differentiation
